Key:
Format in all cases: in vivo
[1] = system: Erysiphe graminis tritici (powdery mildew); assay: Test 1 greenhouse foliar spray screen, powdery mildew on wheat; details: disease control rating, foliar spray on wheat, 400 ppm (+++ at 100 ppm)
[2] = system: Pyricularia oryzae (rice blast); assay: whole plant or invertebrate; details: disease control rating, foliar spray on rice, 400 ppm (+++ at 100 ppm)
[3] = system: Puccinia recondita tritici (leaf rust); assay: Test 1 greenhouse foliar spray screen, leaf rust on wheat; details: disease control rating, foliar spray on wheat, 400 ppm (+++ at 100 ppm)
[4] = system: Botrytis cinerea (gray mold); assay: Test 1 greenhouse foliar spray screen, gray mold on grape berries; details: disease control rating, spray on grape berries, 400 ppm (+++ at 100 ppm)
[5] = system: Pseudoperonospora cubensis (downy mildew); assay: Test 1 greenhouse foliar spray screen, downy mildew on squash; details: for DOWN MDEW: disease control rating, foliar spray on squash, 400 ppm (+++ at 100 ppm)
[6] = system: Cercospora beticola (leaf spot); assay: Test 1 greenhouse foliar spray screen, leaf spot on sugar beet; details: disease control rating, foliar spray on sugar beet, 400 ppm (+++ at 100 ppm)
[7] = system: Venturia inaequalis (apple scab); assay: Test 1 greenhouse foliar spray screen, apple scab on apple seedling; details: disease control rating, foliar spray on apple seedling, 400 ppm (+++ at 100 ppm)
[8] = system: Septoria tritici (leaf blotch); assay: Test 1 greenhouse foliar spray screen, leaf blotch on wheat; details: disease control rating, foliar spray on wheat, 400 ppm (+++ at 100 ppm)
[9] = system: southern armyworm (Spodopetra eridania Cramer); assay: Mite/insect screen, SAW; details: percent mortality, SAW; for mortality at 200 ppm / mortality at 400 ppm: Spodoptera eridania, read-out: SAW RESULTS %; for mortality at 400 ppm: SM & MA RATE 400 PPM
How it was run: (§1)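 Read-out: percent mortality after standard exposure periods. Test solutions were water dilutions of compound dissolved in acetone/alcohol (50:50) with emulsifier blends; leaves were sprayed to runoff on both surfaces and air-dried for one hour before exposure.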

[10] = system: Twospotted spider mites (Tetranychus urticae Koch); assay: Mite/insect screen, SM; details: for mortality at 200 ppm / mortality at 400 ppm: Tetranychus urticae, read-out: SM RESULTS %; for mortality at 200 ppm / mortality at 400 ppm / SM RESULTS %: percent mortality, SAW; for mortality at 200 ppm / SM RESULTS %: SM & MA RATE 200 PPM; for mortality at 400 ppm: SM & MA RATE 400 PPM
How it was run: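 Foliar spray to runoff (10 psi), 1 h drying; aqueous dilutions from acetone/alcohol emulsifier stock. Mortality (%) after standard exposure.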

[11] = system: melon aphids (Aphis gossypii Glover); assay: Mite/insect screen, MA; details: percent mortality, SAW; for mortality at 200 ppm / mortality at 400 ppm: Aphis gossypii, read-out: MA RESULTS %; for mortality at 200 ppm / MA RESULTS %: SM & MA RATE 200 PPM; for mortality at 400 ppm: SM & MA RATE 400 PPM
How it was run: as §1

[12] = system: corn rootworm; assay: Mite/insect screen, CRW; details: percent mortality; for mortality at 12 ppm / CRW RESULTS %: CRW RATE 12.00 PPM; for mortality at 12 ppm / mortality at 24 ppm: read-out: CRW RESULTS %; for mortality at 24 ppm: CRW RATE 24.00 PPM
How it was run: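 Read-out: % mortality after standard exposure. Formulation: acetone/alcohol (50:50) with emulsifiers at 23 g and 13 g per liter, water-diluted to final test levels.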

[13] = summary statement in the description

SMILES	POWD MDEW [1]	RICE BLAST [2]	LEAF RUST [3]	GRAY MOLD [4]	DOWN MDEW [5]	LEAF SPOT [6]	APPL SCAB [7]	LEAF BLOT [8]	mortality at 200 ppm ([9]; SM & MA RATE 200 PPM) [%]	mortality at 200 ppm [10] [%]	mortality at 200 ppm [11] [%]	mortality at 12 ppm [12] [%]	mortality at 400 ppm [9] [%]	mortality at 400 ppm [10] [%]	mortality at 400 ppm [11] [%]	mortality at 24 ppm [12] [%]	SM RESULTS % [10] [%]	MA RESULTS % [11] [%]	also measured
Fc1cc(F)c2nccc(NCCc3ccccc3)c2c1 [Example 7, 6,8-difluoro-N-(2-phenylethyl)-4-quinolinamine]	+ (20-89% control at 400 ppm)	+ (20-89% control at 400 ppm)	+++ (90-100% control at 100 ppm)	- (0-19% control at 400 ppm)	+++ (90-100% control at 100 ppm)	- (0-19% control at 400 ppm)	- (0-19% control at 400 ppm)	+++ (90-100% control at 100 ppm)	0	0	0	0							
Fc1ccc2c(NCCc3ccccc3)ccnc2c1 [Example 8, 7-fluoro-N-(2-phenylethyl)-4-quinolinamine]	+ (20-89% control at 400 ppm)	++ (90-100% control at 400 ppm)	+ (20-89% control at 400 ppm)	- (0-19% control at 400 ppm)	+++ (90-100% control at 100 ppm)	+++ (90-100% control at 100 ppm)	- (0-19% control at 400 ppm)	+ (20-89% control at 400 ppm)	100	0	0	0							
Fc1ccc2nccc(NCCc3ccccc3)c2c1 [Example 9, 6-fluoro-N-(2-phenylethyl)-4-quinolinamine]	+ (20-89% control at 400 ppm)	+ (20-89% control at 400 ppm)	+ (20-89% control at 400 ppm)	- (0-19% control at 400 ppm)	+++ (90-100% control at 100 ppm)	- (0-19% control at 400 ppm)	- (0-19% control at 400 ppm)	- (0-19% control at 400 ppm)	0	0	0	0							
Fc1cccc2c(NCCc3ccc(I)cc3)ccnc12 [Example 11, 8-fluoro-N-[2-(4-iodophenyl)ethyl]-4-quinolinamine]	- (0-19% control at 400 ppm)	++ (90-100% control at 400 ppm)	+++ (90-100% control at 100 ppm)	- (0-19% control at 400 ppm)	++ (90-100% control at 400 ppm)	+++ (90-100% control at 100 ppm)	- (0-19% control at 400 ppm)	- (0-19% control at 400 ppm)	80	0	0	0	100	0	0	60			activity as miticides [10, 13]: particularly excellent activity
Fc1cc(F)c2nccc(NCCc3ccc(Br)cc3)c2c1 [Example 12, N-[2-(4-bromophenyl)ethyl]-6,8-difluoro-4-quinolinamine]	+ (20-89% control at 400 ppm)	++ (90-100% control at 400 ppm)	+++ (90-100% control at 100 ppm)	- (0-19% control at 400 ppm)	++ (90-100% control at 400 ppm)	+++ (90-100% control at 100 ppm)	- (0-19% control at 400 ppm)	++ (90-100% control at 400 ppm)	0	0	0	0	100	0	0	40			
FC(F)(F)c1cccc2c(NCCc3ccc(Br)cc3)ccnc12 [Example 13, N-[2-(4-bromophenyl)ethyl]-8-(trifluoromethyl)-4-quinolinamine]	- (0-19% control at 400 ppm)	++ (90-100% control at 400 ppm)	++ (90-100% control at 400 ppm)	- (0-19% control at 400 ppm)	++ (90-100% control at 400 ppm)	- (0-19% control at 400 ppm)	- (0-19% control at 400 ppm)	- (0-19% control at 400 ppm)	0	0	0	0	0	0	0	0			
Cc1ccc2nccc(NCCc3ccc(Cl)cc3)c2c1 [Example 14, N-[2-(4-chlorophenyl)ethyl]-6-methyl-4-quinolinamine]	- (0-19% control at 400 ppm)	+ (20-89% control at 400 ppm)	+ (20-89% control at 400 ppm)	- (0-19% control at 400 ppm)	+++ (90-100% control at 100 ppm)	+++ (90-100% control at 100 ppm)	- (0-19% control at 400 ppm)	- (0-19% control at 400 ppm)	0	0	0	0	0	0	0	0			activity against downy mildew [5, 13]: particularly excellent activity
Cc1ccc(CCNc2ccnc3c(F)cccc23)cc1 [Example 71, 8-fluoro-N-[2-(4-methylphenyl)ethyl]-4-quinolinamine]	+ (20-89% control at 400 ppm)	+ (20-89% control at 400 ppm)	+++ (90-100% control at 100 ppm)	- (0-19% control at 400 ppm)	+++ (90-100% control at 100 ppm)	+++ (90-100% control at 100 ppm)	- (0-19% control at 400 ppm)	+ (20-89% control at 400 ppm)	0	0	0						0	0	SAW RESULTS % ([9]; SM & MA RATE 200 PPM): 0%
Fc1cccc2c(NCCc3cccc(Cl)c3)ccnc12 [Example 74, N-[2-(3-chlorophenyl)ethyl]-8-fluoro-4-quinolinamine]	+ (20-89% control at 400 ppm)	+ (20-89% control at 400 ppm)	+++ (90-100% control at 100 ppm)	- (0-19% control at 400 ppm)	+++ (90-100% control at 100 ppm)	+++ (90-100% control at 100 ppm)	- (0-19% control at 400 ppm)	- (0-19% control at 400 ppm)		0	0	0					0	0	CRW RESULTS % [12]: 0%
CC(CNc1ccnc2c(F)cccc12)c1ccc(Cl)cc1 (stereo not drawn) [Example 79, N-[2-(4-chlorophenyl)propyl]-8-fluoro-4-quinolinamine]	+ (20-89% control at 400 ppm)	++ (90-100% control at 400 ppm)	++ (90-100% control at 400 ppm)	- (0-19% control at 400 ppm)	+++ (90-100% control at 100 ppm)	+++ (90-100% control at 100 ppm)	- (0-19% control at 400 ppm)	+ (20-89% control at 400 ppm)		0	0	0					0	0	CRW RESULTS % [12]: 0%

— EP0326331B1, “Substituted quinolines and cinnolines” (Dow AgroSciences LLC, priority 1988, dated 1989)
